Source: US20260217768A1, “NANOPARTICLE-NHE3 PEPTIDE TO TREAT DIARRHEA” (The Johns Hopkins University, priority 2023, published 2026)
“Also recorded” adds a separate entry of the source. Read-outs that look alike come from different tables or passages of the source.

Experiments:
[1] = tested on: mouse jejunum; conditions: in vivo
[2] = tested on: NHE3; assay: NHE3 activity in differentiated human enteroid monolayers after nanoparticle delivery of peptide; assay type: cell-based; conditions: nanoparticles (250 nM) 18 h, FSK exposure, n=4
Description: (§1) NHE3 activity in PS120, Caco-2/BBe cells and human jejunal enteroids was determined fluorometrically (Photon Technologies Incorporated) using the intracellular pH sensitive dye BCECF, as reported (Levine et al., 1993; Sarker et al., 2008; Foulke-Abel et al., 2020). PS120/HA3-NHE3 cells were seeded on glass cover slips and studied at 70-80% confluency. Caco-2/BBe/HA3-NHE3 cells were grown to confluency on Transwell inserts (polyester, 0.4-μm pore size) and studied approximately 14-16 days pod. Human duodenal enteroid monolayers on Transwell inserts were differentiated for 5 days in the absence of Wnt3a, R-spondin, and noggin as described (Noel et al., 2017; Staab et al., 2020).
(§2) Rates of Na^+/H^+ exchange were determined as Na^+-dependent alkalinization in the presence of 50-μM HOE-694 (to inhibit all other plasma membrane NHE isoforms) in HCO3-free solutions, with internal calibration using the nigericin/K+ method, as previously described (Sarker et al., 2008; Foulke-Abel et al., 2020). Kinetic analysis was used for PS120 cell studies (expressed as Vmax) and initial rates (ΔpH/min) for Caco-2/BBe cells, mouse intestine in vitro, and human enteroids. For in vitro mouse jejunal transport studies, NHE3 activity (in the presence of 50-μM HOE-694) was measured using SNARF-4F at 37° C. in a perfusion chamber using a two-photon microscope (Olympus FV1000) and 25× objective, as described (Murtazina et al., 2011).
PBAE polymer and peptide were separately dissolved in pH 7.4 150-mM PBS and combined at a 1:1 volume ratio. Final concentrations of the components were 6-ng/μL peptide and 180-ng/μL polymer (30:1 polymer: peptide weight ratio). Polymer and peptide nanoparticles were allowed to self-assemble at room temperature for 10 minutes. For characterization, nanoparticles were diluted 1:5 in PBS. Hydrodynamic diameter and zeta potential were measured using a Malvern Zetasizer Pro (Malvern Panalytical, Malvern, UK). Stability was assessed by incubating nanoparticles at RT up to 45 minutes then measuring hydrodynamic diameter over 45 minutes. […]

[3] = tested on: adenylate cyclase-cAMP; assay: cAMP assay in human enteroid monolayers exposed to FSK; assay type: cell-based; conditions: nanoparticles with 250-nM peptide, FSK (10 μM) 45 min, CP-2 vs N3SP-1Δ7
Description: Human jejunal enteroid monolayers on Transwell inserts (Corning Cat #: 3470) were differentiated for 5 days and then in serum-free media were exposed apically to nanoparticles containing either 250-nM CP-2 or N3SP-1Δ7. The peptide and polymer in PBS were prepared just before use, allowed to combine for 10 min before being added to the apical surface of enteroid monolayers at room temperature. Monolayers were incubated for 4 hours at 37° C., 5% CO2 incubator before the nanoparticles were removed, then monolayers were washed 3 times with cold PBS and changed to differentiation media and moved to a 37° C. incubator. Differentiation media was removed 24 hours later and washed twice with CMGF-media (Advanced DMEM/F12 with 10-mM Hepes, 10-mM GlutaMax, and 1000 Units/mL Penn/Strep). Next, 100 μL of CMGF-media containing 10-mM Theophylline, 50-μM Cilostazol and 50-μM Rolipram was added to the apical and basolateral surfaces followed by exposure to FSK (10 μM) at 37° C., 5% CO2, for 45 min before apical and basolateral media were collected and cells were lysed in 200-μL 0.1 M HCl for cAMP analysis. CAMP in apical, basolateral, and cells was determined using nonradioactive, CAMP-ELISA kits from ENZO Life Sciences (Loerrach, German), using the acetylation protocol in which the yellow-colored product is inversely proportional to the amount of CAMP present in the sample.

[4] = tested on: mouse ileal loops; assay: Basal fluid absorption in closed mouse ileal loops, nanoparticle-conjugated peptides, with or without Tenapanor; assay type: in vivo
Description: (§3) All in vivo studies were performed on 8-12 week old C57B1/6N mice anesthetized with isofluorane and kept at 37° C. via heating lamps and rectal thermal probes.
(§4) Effect on basal fluid transport and effect of Tenapanor. Mice operated on as above had 3-4 cm closed ileal loops inoculated with 150-μL PBS containing 400-nM nanoparticle-CP-2 or -N3SP-1Δ7. After 4 h, the loops were drained and inoculated with 150-μL PBS. 30 min later, the animals were sacrificed and loop weight/length determined. In parallel studies, Tenapanor (10 μM) was present in both incubation periods. Similar to the BODIPY-conjugated peptide studies, the effects of nanoparticle-CP-2 or N3SP-1Δ7 (4 μM) compared to PBS alone were determined on net fluid secretion produced by inoculation of 0.1-μg CTx. The nanoparticle-peptides plus 0.1-μg CTx in 150-μL PBS were inoculated in 3-4 cm long closed ileal loops. Additional controls included loops exposed only to 150-μL PBS and those only exposed to the CTx/PBS. 4 h later, the animals were sacrificed and loop weight/cm length was determined.

[5] = tested on: mouse ileal loops; assay: CTx-induced fluid secretion in closed mouse ileal loops, nanoparticle-conjugated peptides; assay type: in vivo; conditions: nanoparticle-peptide 4 μM with 0.1-μg CTx, 4 hours
Description: as §3, §4

[6] = Nanoparticle characterization: hydrodynamic diameter, zeta potential, stability; assay type: physicochemical; conditions: CR5 with peptide, 30:1 polymer:peptide weight ratio
Description: PBAE polymer and peptide were separately dissolved in pH 7.4 150-mM PBS and combined at a 1:1 volume ratio. Final concentrations of the components were 6-ng/μL peptide and 180-ng/μL polymer (30:1 polymer: peptide weight ratio). Polymer and peptide nanoparticles were allowed to self-assemble at room temperature for 10 minutes. For characterization, nanoparticles were diluted 1:5 in PBS. Hydrodynamic diameter and zeta potential were measured using a Malvern Zetasizer Pro (Malvern Panalytical, Malvern, UK). Stability was assessed by incubating nanoparticles at RT up to 45 minutes then measuring hydrodynamic diameter over 45 minutes. Nanoparticles were made immediately prior to each experiment.

[7] = tested on: NHE3; assay: Effect of N-terminal truncations of N3SP-1 on NHE3 activity in human enteroids (BCECF-fluorometry); assay type: cell-based; conditions: human duodenal enteroids, Hill equation; for Stimulation of NHE3 Activity: basal NHE3 activity, BCECF-fluorometry; for EC50: stimulation of basal NHE3 activity
Description: as §1, §2
Concentration dependent effects on NHE3 basal activity was determined using BCECF-fluorometry. Kinetic analysis was determined of extent of stimulation of basal NHE3 activity; analysis was by use of the Hill equation.
Given the ability of N3SP-1Δ7 to prevent CTx-induced fluid secretion in vivo (FIG. 3E) and to stimulate basal NHE3 activity and prevent cAMP inhibition in human enteroids (FIG. 4C), further studies were carried out with human enteroids to determine the shortest N3SP-1-related peptide that would stimulate human NHE3. A series of N3SP-1 N-terminal truncations was synthesized and concentration-dependent stimulation of NHE3 activity determined using human jejunal enteroids.

[8] = tested on: NHE3; assay: NHE3 activity in PS120/HA3-NHE3/NHERF2 cells (BCECF); assay type: cell-based, rabbit
[9] = tested on: NHE3; assay: NHE3 activity in polarized Caco-2/BBe/HA3-NHE3 cells (BCECF); assay type: cell-based; conditions: for EC50: Hill equation
[10] = tested on: mouse jejunum; assay: Basal net water transport, in vivo perfusion of mouse jejunal loops
[11] = tested on: CTx-induced electrogenic anion secretion; assay: Short-circuit current (Isc) of CTx-treated mouse jejunal loops, Ussing chamber/voltage clamp; conditions: for Isc in CTx treated loops compared to CTx in PBS: 400 nM peptide with 1-μg CTx for 6 h, no further secretagogue; for peak increases in Isc with sequential addition of FSK and carbachol: CTx exposed loops, 10-μM FSK then 10-μM CCH serosal, CP-1 vs N3SP-1
[12] = tested on: mouse jejunum; conditions: in vivo; remark: listed apart in the source
[13] = tested on: mouse jejunum; assay: Anti-CD3 monoclonal antibody-induced (TNFα-mediated inflammation) fluid secretion, mouse jejunal loops; assay type: in vivo
[14] = tested on: NHE3; assay: NHE3 activity in mouse jejunum in vitro (two-photon microscope/SNARF-4F); assay type: cell-based
[15] = tested on: NHE3; assay: NHE3 stimulation, summary statement over models and delivery systems; assay type: cell-based; conditions: using either delivery system (maleimide or nanoparticles); read-out: EC50 for stimulation of basal and second messenger inhibited NHE3

CP-2: control peptide, N3SP-1 lacking first ten N-terminal amino acids (rabbit NHE3 residues 578-605) (TVEASVSYLLRESASAVCLDMQSLEQRR; UniProt P26432 578-605, looked up, fragment)
effect on CTx-stimulated net fluid secretion (loop weight/cm) [1]: Results similar to those with N3SP-1 and CP-1
NHE3 activity after FSK, % of same peptide without FSK [2]: 77.2%
FSK-increased intracellular cAMP [3]: similar
residual fluid in presence of Tenapanor, CP2 vs N3SP-1Δ7 ([4]; nanoparticle conjugated peptide 400 nM, Tenapanor (10 μM) in both incubation periods): no difference in residual fluid
effect on CTx-induced fluid in ileal loops (loop weight/length) [5]: did not reduce the residual loop volume
surface zeta potential (electrophoretic light scattering) [6]: 24.6±0.5 mV
nanoparticle diameter (DLS) ([6]; aqueous): 319±55 nm

N3SP-1 N-terminal truncation of 6 aa: PRPSTVEASVSYLLRESASAVCLDMQSLEQRR [Peptide N3SP-1Δ6]
Stimulation of NHE3 Activity [7]: YES (40%)
EC50 [7]: 151 nM

CP-1: 21 aa control peptide representing aa 585-605 of rabbit NHE3 (YLLRESASAVCLDMQSLEQRR; UniProt P26432 585-605, looked up, fragment)
effect on basal NHE3 activity compared to BODIPY alone [8]: no significant effect
effect on basal NHE3 activity in the absence of BODIPY conjugation [8]: Neither CP-1 nor N3SP-1 altered basal NHE3 activity
EGF stimulation of NHE3 activity in presence of peptide [9]: 38%
jejunal net water transport ([10]; mouse, in vivo): 4.2 µL/min/cm
effect on CTx-stimulated net fluid secretion (loop weight/cm) [1]: did not alter fluid accumulation
localization of NHE3 in CTx-treated jejunum [1]: NHE3 was internalized
Isc in CTx treated loops compared to CTx in PBS [11]: slightly, but not significantly, greater
peak increases in Isc with sequential addition of FSK and carbachol [11]: not different
effect on STa-induced intestinal fluid accumulation [12]: not observed
effect on anti-CD3 antibody-induced luminal fluid accumulation ([13]; mouse, in vivo, ip): increased luminal fluid accumulation

N3SP-1 N-terminal truncation of 5 aa: TPRPSTVEASVSYLLRESASAVCLDMQSLEQRR [Peptide N3SP-1Δ5]
Stimulation of NHE3 Activity [7]: YES (39%)
EC50 [7]: 154 nM

NHE3 mimetic peptide, rabbit NHE3 aa 568-605: NVDFSTPRPSTVEASVSYLLRESASAVCLDMQSLEQRR [Peptide N3SP-1]
Stimulation of NHE3 Activity [7]: YES (38%)
EC50 [7]: 152 nM
stimulation of basal NHE3 activity compared to CP-1 ([8]; BODIPY-conjugated peptide 400 nM, PS120/HA3-NHE3/NHERF2 cells): 61%
effect on inhibition of NHE3 by 4-Br-A23187 ([8]; BODIPY-conjugated peptide pretreatment, 0.5-μM A23187, PS120 fibroblasts): prevented inhibition
effect on basal NHE3 activity in the absence of BODIPY conjugation ([8]; unconjugated peptide 400 nM, PS120 cells): No stimulatory effect; also recorded: Neither CP-1 nor N3SP-1 altered basal NHE3 activity
stimulation of basal NHE3 activity compared to CP-1 ([9]; BODIPY-conjugated peptide 400 nM, Caco-2/BBe/HA3-NHE3 cells): 41%
EC50 ([9]; BODIPY-conjugated peptide added apically, Caco-2/BBe cells, read-out: EC50 of prevention of FSK inhibition of NHE3): 157 nM
effect on inhibition of NHE3 by FSK ([9]; BODIPY-conjugated peptide pretreatment, FSK (10 μM), Caco-2/BBe cells): prevented inhibition
effect on inhibition of NHE3 by carbachol ([9]; BODIPY-conjugated peptide pretreatment, carbachol (10 μM), Caco-2/BBe cells): prevented inhibition
concentration of maximal effect on basal NHE3 activity ([9]; BODIPY-conjugated peptide, Caco-2/BBe/HA3-NHE3 cells): 400 nM
EC50 ([9]; BODIPY-conjugated peptide, Caco-2/BBe/HA3-NHE3 cells, read-out: EC50 of stimulation of basal NHE3 activity): 152 nM
EGF stimulation of NHE3 activity in presence of peptide ([9]; EGF (200 ng/mL), BODIPY-conjugated peptide 400 nM, Caco-2/BBe cells): 35%
stimulation of basal NHE3 activity compared to CP-1 ([14]; BODIPY-conjugated peptide 400 nM): 57%
effect on inhibition of NHE3 by FSK ([14]; BODIPY-conjugated peptide pretreatment, FSK (10 μM)): prevented inhibition
difference in net water transport between N3SP-1 and CP-1 perfused jejunal loops ([10]; 400 nM, n=5, p=0.0004): 56.6 ± 15.1 µL/min/cm
effect on CTx-stimulated net fluid secretion (loop weight/cm) [1]: prevented CTx-stimulated fluid secretion
localization of NHE3 in CTx-treated jejunum [1]: NHE3 was detected on the CTx-treated jejunal BB
Isc in CTx treated loops compared to CTx in PBS [11]: slightly, but not significantly, greater; also recorded: not altered
peak increases in Isc with sequential addition of FSK and carbachol [11]: not different
effect on STa-induced intestinal fluid accumulation [12]: significantly reduced
effect on anti-CD3 antibody-induced luminal fluid accumulation ([13]; 400 nM peptide in loop, 200-μg anti-CD3 antibody IP, 2.5 h): prevents fluid secretion

CN1Cc2c(Cl)cc(Cl)cc2[C@H](c2cccc(S(=O)(=O)NCCOCCOCCNC(=O)NCCCCNC(=O)NCCOCCOCCNS(=O)(=O)c3cccc([C@@H]4CN(C)Cc5c(Cl)cc(Cl)cc54)c3)c2)C1 [Tenapanor, reference compound]
effect on N3SP-1Δ7 increased baseline fluid absorption ([4]; pretreatment with 10-μM Tenapanor): prevented

N3SP: general name of the NHE3 stimulatory peptide (N3SP-1 and active truncations) (RPSTVEASVSYLLRESASAVCLDMQSLEQRR) [Peptide N3SP]
EC50 [15]: ~150 nM
